From patent US9969688B2, “Roflumilast prodrugs” (HISAMITSU PHARMACEUTICAL CO., INC., priority 2014, dated 2018)
Values after ≈ are worked out from the molar mass of the structure shown.

Experiments:
[1] = Evaluation test of skin permeability (Franz diffusion cell); format: in vitro ADME; conditions: hairless mouse skin; for Jmax (maximum skin permeation rate) / Cumulative Amount of Permeation for 24 hours: 1 w/w % in dimethyl sulfoxide, 100 μL, 32° C.
Experimental: Skin was excised from the back of a hairless mouse and the section of the skin was placed in a Franz diffusion cell (glass cell) so that a solution of each of test compounds (compounds of Examples, Comparative Example, or Reference Examples) was contacted with the epidermal side of the section of the skin (applied area: 1 cm^2). Phosphate buffered physiological saline (PBS) was used as a flow solution. The flow rate was set to 5 mL/hour and the temperature of thermoregulated bath was set to 32° C. Next, dimethyl sulfoxide was added to achieve the concentration of the test compound of 1 w/w % and the resultant was stirred thoroughly to prepare a solution of the test compound. The donor chamber of the Franz diffusion cell was charged with 100 μL of the resulting solution of the test compound. The flow solution was sampled every 2 hours until 24 hours after the charge of the test compound solution. The flow solutions sampled every 2 hours were diluted two-fold by adding acetonitrile and the diluted solution was centrifuged to give supernatants as an HPLC analytical sample. Each of the resulting analytical samples was analyzed by high performance liquid chromatography to calculate the maximum skin permeation rate (Jmax) and the cumulative amount of permeation for 24 hours. Roflumilast was used in Comparative Example 1.

[2] = tested on: human liver enzyme fraction; assay: In vitro metabolism test (metabolic rate into roflumilast); format: in vitro ADME; conditions: treated with human liver enzyme fractions
Experimental: A human liver enzyme fraction was added to 100 mmol/L Tris-HCl buffer containing coenzymes (NADPH-producing) so as to achieve the concentration of 0.5 mg protein/mL and the resultant was pre-incubated at 37° C. for 5 minutes. A test compound was added to this solution so as to achieve the concentration of 0.1 μmol/L and the resultant was incubated at 37° C. for an hour. The reaction was then stopped by adding water-cooled acetonitrile. The resulting solution was filtered and then quantified by using LC-MS/MS to calculate the metabolic rate (%) into roflumilast. It is noted that “with heat treatment” in Table 1 means using a human liver enzyme fraction subjected to heat treatment before adding to thereby inactivate a metabolic enzyme therein.
Numerical values in Table 1 represent metabolic rates (%) into rofiumilast. […] Roflumilast was not produced when metabolic enzymes were inactivated by heat treatments prior to using the human liver enzyme fractions.

[3] = Evaluation test of water solubility (saturated solubility); format: physicochemical; conditions: phosphate buffer (pH 7); for solubility at 30 min: aqueous buffer, thermodynamic from solid, ultrasonicated 30 minutes
Experimental: An excessive amount of a test compound was added to 10 mL of phosphate buffer (pH 7) and the resultant was ultrasonicated for 30 minutes. The resulting suspension was filtered and 0.5 mL of acetonitrile was added to 0.5 mL of the filtrate to obtain a test solution. The concentration of the test compound in the test solution was determined by high performance liquid chromatography to calculate the saturated solubility. Roflumilast was used in Comparative Example 1.

| Structure (SMILES) | Jmax (maximum skin permeation rate) [1] [μg/cm^2/hr] | Cumulative Amount of Permeation for 24 hours [1] [μg/cm^2] | production of roflumilast by human liver enzyme fractions (in words) [2] | solubility at 30 min [3] [µg/mL] | Ratio to Roflumilast (saturated solubility) [3] | skin permeability (in words) ([1]; up to 24 hours) |
| --- | --- | --- | --- | --- | --- | --- |
| O=C(O)CN(C(=O)c1ccc(OC(F)F)c(OCC2CC2)c1)c1c(Cl)cncc1Cl [Reference Example 2, N-carboxymethyl-N-(3,5-dichloropyrid-4-yl)-3-cyclopropylmethoxy-4-difluoromethoxybenzamide, reference compound] | 9.5 | 56.9 | did not produce roflumilast | 612 (≈ 1330 µM) | 1640.2 |  |
| O=C(c1ccc(OC(F)F)c(OCC2CC2)c1)N(CCO)c1c(Cl)cncc1Cl [Example 2, N-(3,5-dichloropyrid-4-yl)-N-(2-hydroxyethyl)-3-cyclopropylmethoxy-4-difluoromethoxybenzamide] | 10.7 | 157.7 |  | 12.5 (≈ 27.9 µM) | 33.4 |  |
| N#CCN(C(=O)c1ccc(OC(F)F)c(OCC2CC2)c1)c1c(Cl)cncc1Cl [Example 1, N-cyanomethyl-N-(3,5-dichloropyrid-4-yl)-3-cyclopropylmethoxy-4-difluoromethoxybenzamide] | 1.2 | 12.1 |  | 1.64 (≈ 3.72 µM) | 4.4 |  |
| NC(=O)CN(C(=O)c1ccc(OC(F)F)c(OCC2CC2)c1)c1c(Cl)cncc1Cl [Reference Example 1, N-carbamoylmethyl-N-(3,5-dichloropyrid-4-yl)-3-cyclopropylmethoxy-4-difluoromethoxybenzamide, reference compound] | 0.9 | 7.2 | did not produce roflumilast | 16.6 (≈ 36 µM) | 44.5 |  |

Other lines, results leading:

| Jmax (maximum skin permeation rate) [1] [μg/cm^2/hr] | Cumulative Amount of Permeation for 24 hours [1] [μg/cm^2] | production of roflumilast by human liver enzyme fractions (in words) [2] | solubility at 30 min [3] [µg/mL] | Ratio to Roflumilast (saturated solubility) [3] | skin permeability (in words) ([1]; up to 24 hours) | Structure (SMILES) |
| --- | --- | --- | --- | --- | --- | --- |
| 8.5 | 163.5 |  |  |  |  | O=C(c1ccc(OC(F)F)c(OCC2CC2)c1)N(CCCO)c1c(Cl)cncc1Cl [Example 5, N-(3,5-dichloropyrid-4-yl)-N-(3-hydroxypropan-1-yl)-3-cyclopropylmethoxy-4-difluoromethoxybenzamide] |
| 1.2 | 17.6 |  |  |  |  | COCN(C(=O)c1ccc(OC(F)F)c(OCC2CC2)c1)c1c(Cl)cncc1Cl [Example 6, N-(3,5-dichloropyrid-4-yl)-N-methoxymethyl-3-cyclopropylmethoxy-4-difluoromethoxybenzamide] |
| 0.0 | 0.0 |  | 0.373 (≈ 0.925 µM) | 1 | no skin permeability even after 24 hours | O=C(Nc1c(Cl)cncc1Cl)c1ccc(OC(F)F)c(OCC2CC2)c1 [Comparative Example 1, N-(3,5-dichloropyrid-4-yl)-3-cyclopropylmethoxy-4-difluoromethoxybenzamide, reference compound] |
| 3.2 | 51.0 |  | 9.7 (≈ 23.2 µM) | 26.0 |  | CN(C(=O)c1ccc(OC(F)F)c(OCC2CC2)c1)c1c(Cl)cncc1Cl [Example 3, N-(3,5-dichloropyrid-4-yl)-N-methyl-3-cyclopropylmethoxy-4-difluoromethoxybenzamide] |
